In ChEMBL document CHEMBL2094260, “Malaria Box Tuberculosis Screening Data”:
Values after ≈ are worked out from the molar mass of the structure shown.

Columns and labels:
[1] = test system: Mycobacterium tuberculosis; assay: MMV: CRC and MIC90 against Mtb (replicating); format: functional
[2] = test system: Mycobacterium tuberculosis; assay: MMV: Screen against Mtb, single point, replicating, at 25uM; format: functional
[3] = MMV: Cytotoxicity CRC and LD50 against HepG2; format: toxicity, cell-based; settings: human, HepG2 cells; read-out: LD50 (the source's name)
[4] = test system: Mycobacterium tuberculosis; assay: MMV: CRC and MIC90 against Mtb (non replicating); format: functional
[5] = test system: Mycobacterium tuberculosis; assay: MMV: Screen against Mtb, single point, non replicating, at 25uM; format: functional

Compound	MIC90 [1]	inhibition at 25 µM [2]	CC50 [3]	MIC90 [4]	inhibition at 25 µM [5]
CN1CCN(c2ccc(Nc3c4ccccc4nc4ccccc34)cc2)CC1	45.1 µM (≈ 16.6 µg/mL)	63.8%	0.654 µM	27.7 µM (≈ 10.2 µg/mL)	44.1%
O=C(Nc1ccc(Cl)c(Cl)c1)Nc1ccc(Cl)c(Cl)c1	3.89 µM (≈ 1.36 µg/mL)	92.6%	6.5 µM	10.3 µM (≈ 3.61 µg/mL)	99.8%
COc1ccc(C2c3ccc4ccccc4c3Oc3ncn(CCCN(C)C)c(=N)c32)cc1 (stereo not given)	16.9 µM (≈ 7.45 µg/mL)	98.1%	1.53 µM	> 100 µM	47.1%
N=c1n(CCN2CCCCC2)c2ccccc2n1CC(=O)c1ccc(Cl)c(Cl)c1	21.1 µM (≈ 9.1 µg/mL)	96.3%	6.5 µM	> 100 µM	17.6%
C[n+]1c2ccccc2nc2ccc(NCCO)cc21	6 µM	84.9%	6.65 µM	> 100 µM	37.7%
CCn1nc(-c2ccc(C(=O)OC)cc2)nc2c(=O)n(C)c(=O)nc1-2	> 100 µM	55.9%	1.36 µM	33.6 µM (≈ 11.5 µg/mL)	65.1%
Cc1cc(N2CCCC2)nc(Nc2ccc(NC(=O)CCc3ccccc3)cc2)n1	14 µM (≈ 5.62 µg/mL)	82.1%	2.64 µM	> 100 µM	9.94%
CC(C)(C)CC(C)(C)NCC(O)COc1ccc(Cl)cc1Cl (stereo not given)	4.47 µM (≈ 1.56 µg/mL)	98.5%	3.51 µM	40.2 µM (≈ 14 µg/mL)	30.2%
Cc1cc(NCCN2CCCCC2)c2ccc3ccccc3c2n1	39.1 µM (≈ 12.5 µg/mL)	71.1%	2.04 µM	> 100 µM	15.5%
COc1cccc(Nc2nc(NCCO)c3ccccc3n2)c1	27.3 µM (≈ 8.47 µg/mL)	81.8%	26 µM	> 100 µM	14.8%
COCCNCC(O)Cn1c2ccc(Cl)cc2c2cc(Cl)ccc21 (stereo not given)	11.6 µM (≈ 4.26 µg/mL)	99.4%	3.92 µM	56.1 µM (≈ 20.6 µg/mL)	26.7%
FC(F)(F)c1cccc(Nc2nc3ccccc3nc2Nc2cccc(C(F)(F)F)c2)c1	3.33 µM (≈ 1.49 µg/mL)	97.6%	1.59 µM	5.75 µM (≈ 2.58 µg/mL)	102%
O=C(NC1CCN(Cc2ccccc2)CC1)c1cc(-c2ccncc2)nc2ccc(Cl)cc12	32.5 µM (≈ 14.9 µg/mL)	66%	7.1 µM	> 100 µM	20.6%
CC(=O)c1ccc(NC(=O)CSc2nc(-c3ccccc3Cl)ns2)cc1	14 µM (≈ 5.65 µg/mL)	96.2%	41 µM	> 100 µM	13.4%
Brc1ccc(Nc2nc3ccccc3nc2Nc2ccc(Br)cc2)cc1	3.73 µM (≈ 1.75 µg/mL)	101%	2.69 µM	11.5 µM (≈ 5.41 µg/mL)	100%
OC(CNC1CCCCC1)Cn1c2ccccc2c2ccccc21 (stereo not given)	55.9 µM (≈ 18 µg/mL)	66.6%	4.97 µM	> 100 µM	14%
Cc1ccc(Cl)cc1N1CCN(CCCNC(=O)C2CCN(c3nc4ccccc4[nH]3)CC2)CC1	39 µM (≈ 19.3 µg/mL)	75.7%	4.79 µM	> 100 µM	26.9%
Nc1ccc(-c2nc3cc(Cc4ccc5[nH]c(-c6ccc(N)cc6)nc5c4)ccc3[nH]2)cc1	10.9 µM (≈ 4.69 µg/mL)	94%	2.45 µM	> 100 µM	41.4%
CCCCOC(=O)c1ccc(Nc2cc(C)nc3ccc(OC)cc23)cc1	94.9 µM (≈ 34.6 µg/mL)	96.5%	6.93 µM	> 100 µM	24.7%
Cc1cc(Nc2ccc(OCc3ccccc3)cc2)nc2cc(O)ccc12	19.9 µM (≈ 7.09 µg/mL)	99.8%	8.16 µM	50 µM (≈ 17.8 µg/mL)	10%
CCOc1ccc2nc(C)cc(Nc3ccc(N(C)C)cc3)c2c1	38.3 µM (≈ 12.3 µg/mL)	78%	7.38 µM	67.4 µM (≈ 21.7 µg/mL)	15.7%
COc1ccc(Nc2cc(C)nc(NCc3ccccc3)n2)cc1	18 µM (≈ 5.77 µg/mL)	95.5%	6.9 µM	> 100 µM	22.6%
Cc1cc(Nc2cccc(F)c2)nc(NCc2ccccc2)n1	16.4 µM (≈ 5.06 µg/mL)	98.3%	7.18 µM	> 100 µM	5.92%
COc1ccc(C2NCCc3c2[nH]c2ccccc32)cc1CN1CCN(c2ccc(F)cc2)CC1 (stereo not given)	25.9 µM (≈ 12.2 µg/mL)	87.9%	2.28 µM	> 100 µM	15.9%
O=C1c2ccc3c4c(ccc(c24)C(=O)N1CCCCO)C(=O)N(CCCCO)C3=O	36.5 µM (≈ 15 µg/mL)	89.3%	0.904 µM	79.1 µM (≈ 32.5 µg/mL)	39.6%

Compound	MIC90 [1]	inhibition at 25 µM [2]	CC50 [3]	MIC90 [4]	inhibition at 25 µM [5]
Nc1ccc(-c2nc3cc(Oc4ccc(Oc5ccc6[nH]c(-c7ccc(N)cc7)nc6c5)cc4)ccc3[nH]2)cc1	19.2 µM (≈ 10.1 µg/mL)	98.8%	5.37 µM	> 100 µM	11.8%
CCOC(=O)c1cnc2ccc(OC)cc2c1Nc1ccc(N2CCN(C)CC2)cc1	35.9 µM (≈ 15.1 µg/mL)	78.8%	22.8 µM	> 100 µM	31.3%
Cc1cc(N(C)C)nc(Nc2ccc(NC(=O)Nc3ccccc3)cc2)n1	19.3 µM (≈ 7 µg/mL)	98.1%	11.2 µM	> 100 µM	3.62%
Clc1cc(Br)ccc1-c1ccc(CNCC2CCNCC2)o1	29.3 µM (≈ 11.2 µg/mL)	86.5%	1.78 µM	> 100 µM	34.2%
Cc1ccc2cc3c(N)c4c(C)ccc(C)c4nc3nc2c1	6.06 µM (≈ 1.74 µg/mL)	101%	2.84 µM	> 100 µM	7.35%
CC(C)CCNCC(O)Cn1c2ccccc2c2ccccc21 (stereo not given)	22.9 µM (≈ 7.11 µg/mL)	83.6%	4.74 µM	> 100 µM	16.6%
Cc1ccc(Nc2nc(N)c3ccccc3n2)cc1Cl	24.7 µM (≈ 7.03 µg/mL)	96.6%	10.9 µM	> 100 µM	7.17%
Cc1cc(C)c2nc(N3CCC(C(=O)NCCCN4CCC(N5CCCCC5)CC4)CC3)sc2c1	60.8 µM (≈ 30.3 µg/mL)	60.2%	2.55 µM	> 100 µM	15.2%
CC1CCN(Cc2ccc(NC(=O)c3cc4ccc5cccnc5c4[nH]3)cc2)CC1	33.3 µM (≈ 13.3 µg/mL)	75.1%	4.42 µM	> 100 µM	13.8%
O=C(Nc1cccc(C(F)(F)F)c1)c1cc(Cl)ccc1O	3.87 µM (≈ 1.22 µg/mL)	95.9%	0.99 µM	3.46 µM (≈ 1.09 µg/mL)	102%
CC(C)(C)CC(C)(C)NCC(O)COc1ccc2c(c1)CCC2 (stereo not given)	35.6 µM (≈ 11.4 µg/mL)	70.7%	8.32 µM	> 100 µM	-3.5%
CCCCCCn1c(=N)n(CC(O)COc2cccc(C)c2)c2ccccc21 (stereo not given)	9.69 µM (≈ 3.7 µg/mL)	98.5%	3.27 µM	27.9 µM (≈ 10.6 µg/mL)	31.3%
Cc1ccc(NC(=O)Nc2cccc(Cl)c2)cc1F	28.8 µM (≈ 8.03 µg/mL)	80.7%	11.1 µM	> 100 µM	19.7%
O=C(Nc1ccc(F)c(Cl)c1)Nc1ccc(Cl)c(Cl)c1	4.03 µM (≈ 1.34 µg/mL)	97.5%	4.33 µM	11 µM (≈ 3.67 µg/mL)	100%
COc1ccc(-c2cc(=O)oc3c4c(ccc23)OCN(Cc2ccc(F)cc2)C4)cc1	37.5 µM (≈ 15.7 µg/mL)	90.5%	40.5 µM	> 100 µM	22.3%
CSc1ccccc1C(=O)Nc1nc(-c2ccccn2)cs1	51.2 µM (≈ 16.8 µg/mL)	68.2%	12.1 µM	79 µM (≈ 25.9 µg/mL)	66.8%
Cc1ccc2c(C)nc(Nc3nc(C)cc(-c4ccccc4)n3)nc2c1	18.6 µM (≈ 6.35 µg/mL)	96.8%	> 100 µM	57.9 µM (≈ 19.8 µg/mL)	24.2%
c1ccc(CNc2nc(Nc3ccccc3)nc3ccccc23)cc1	7.46 µM (≈ 2.43 µg/mL)	96.2%	4.16 µM	39.4 µM (≈ 12.9 µg/mL)	21.2%
COc1ccc(Nc2nc(NCc3ccccc3)c3ccccc3n2)cc1	7.33 µM (≈ 2.61 µg/mL)	98%	2.59 µM	48.7 µM (≈ 17.4 µg/mL)	53.9%
OC(CNCc1ccccc1)Cn1c2ccccc2c2ccccc21 (stereo not given)	20.1 µM (≈ 6.64 µg/mL)	90.3%	5.69 µM	> 100 µM	14.3%
CCOc1ccc2nc(C)cc(Nc3ccc(Br)cc3)c2c1	18.7 µM (≈ 6.68 µg/mL)	95.7%	3.95 µM	> 100 µM	11.1%
Clc1ccc2c(N3CCCC3)ccnc2c1	> 100 µM	68.8%	34.9 µM	> 100 µM	17.1%
CCCCCn1c(=N)n(CC(O)COc2cccc(C)c2)c2ccccc21 (stereo not given)	23 µM (≈ 8.45 µg/mL)	96.5%	4.92 µM	> 100 µM	8.77%
CCN(CC)CCCNc1nc(-c2ccc(Cl)cc2)nc2ccccc12	24.7 µM (≈ 9.11 µg/mL)	95.3%	2.72 µM	> 100 µM	17.1%
Cc1ccc(Nc2nc(NCCO)c3ccccc3n2)cc1C	9.52 µM (≈ 2.94 µg/mL)	97.2%	5.5 µM	82.6 µM (≈ 25.5 µg/mL)	7.14%
